Measurements from patent US11479536B1 (King Abdulaziz University, priority 2022, dated 2022).

What was measured:
CYP2C9 = target: T1, CYP2C9 (Homo sapiens, UniProt P11712); test: Inhibition assay of human CYP450 enzymes, 2C9; type: in vitro ADME
T1 construct: purchased Fisher Scientific; host or cells: insect supersomes
Procedure: The two compounds MAK-1 and MAK-6 were assessed for its ability to inhibit the three major human CYP450 enzymes, 3A4, 2D6 and 2C9. Assays were run in triplicate. Expressed enzymes in insect supersomes (Fisher Scientific, Waltham, Mass.) were used to minimize non-specific binding and membrane partitioning issues (McMasters et al., 2007). The 3A4 assay uses testosterone as a substrate and analysis was performed by LC/MS/MS on a Waters Xevo TQ instrument as described above using positive electrospray ionization. Assay acceptance criteria was 20% for all standards and 25% for the LLOQ. The 2D6 and 2C9 assays use fluorescent substrates (3-[2-(N,N-diethylamino)ethyl]-7-methoxy-4-methylcoumarin for 2D6; 7-methoxy-4-(trifluoromethyl)coumarin for 2C9) and were analyzed on an Envision plate reader. GraphPad® Prism v 5.04 was used for nonlinear fitting of data to generate IC50 values.

T47D spheroids = test: Live and dead assay of tumor spheroids, T47D; type: cell-based, human; settings: 48 h post treatment, control 2.60±0.31%
Procedure: The Live/Dead assay contains a mixture of two staining fluorescent dyes that label live and dead cells to enable differentiation between them. The cell viability of the cells in response to the treatment with MAK compounds was examined. The cells were grown for 48 hours and treated with MAK compound for additional 48 hours, then Cytox RED solution reagent was added. After incubation at 37° C. under 5% CO2 for 1 hour, the samples were immediately analyzed by flow cytometry. Mean values and standard deviation of replicates were calculated in comparison to the control group.

[1] = test system: human skin fibroblasts (HSF); test: Cytotoxicity on human skin fibroblasts (SRB method); type: cell-based
Procedure: In addition to have a good physicochemical profile, it is important for a studied lead to differentiate between cancer cells and highly proliferating non-cancerous cells. Therefore, we assessed compounds MAK-1 and MAK-6 for both the in silico and in vitro physicochemical characteristics as well as for cytotoxic effect on human skin fibroblasts (SKF) cell lines. Cytotoxicity was determined using Sulforhodamine B (SRB) method. Exponentially growing human skin fibroblast cells (Nawah Scientific, Cairo, Egypt) were collected using 0.25% Trypsin-EDTA and were then seeded in 96-well plates at a density of 1000-2000 cells/well in 10% FBS and penicillin/streptomycin supplemented RPMI-1640 medium. After 24 h, cells were treated with different concentrations of test compounds and incubated for 72 h at 37° C. in a humidified atmosphere containing 5% CO2. Next, the cells were fixed by adding trichloroacetic acid (TCA, 10% final conc. in wells) directly to the wells and incubated for 1 h at 4° C., then cells were washed with distilled water 5 times to remove excess TCA, media, serum proteins, and metabolites, followed by air drying. After that, the fixed cells were stained with 0.4% SRB dissolved in 1% acetic acid for 10 min at room temperature, and excess stain was removed by quickly rinsing with 1% acetic acid. The residual acetic acid was removed completely by air drying the plates for 24 h, and the dye was solubilized with Tris buffer (pH=7.4, 10 mM) for 5 min on a shaker at 1600 rpm. The optical density (OD) of each well was measured spectrophotometrically at 564 nm with an ELISA microplate reader (ChroMate-4300, FL, USA). The IC50 values were calculated according to the equation for Boltzman sigmoidal concentration—response curve using the nonlinear regression fitting models (Graph Pad, Prism Version 5).

MCF7 spheroids [2] = test: Mitochondrial membrane potential assay (JC-1), MCF7 spheroids; type: cell-based, human; settings: 48 h post treatment at IC50, control 18.01±0.58%
Procedure: The mitochondrial membrane potential was investigated in response to the treatment with MAK compounds. This assay depends on the measurement of the aggregate fluorescence for Tetraethylbenzimidazolylcarbocyanine iodide (JC-1). This cationic dye accumulates in the energized mitochondria, and the increase in aggregate fluorescence indicates mitochondrial […] while the reduction indicates the depolarization state.
After growing the cells and treating them with MAK compound for 48 hours, 2 μM of JC-1 final concentration was added and the mixture was incubated for 1 hour at 37° C. in presence of 5% CO2. Then, the samples were analyzed using flow cytometry. Mean values and standard deviation of replicates were calculated in comparison to the control group.

AMPK (phospho-protein) = test: Phosphoproteome array test, phospho-AMPK signal in lysates of treated HL-60 cells; type: cell-based, human
Procedure: The phosphorylation profile of AMPK kinase (among other 37 kinases) was performed using the Proteome Profiler Human Phospho-Kinase Antibody Array Kit by R&D Systems (Minneapolis, Minn., USA) according to the protocol. Briefly, the total cellular protein was extracted using the Lysis buffer and was quantified using Bio-Rad DC Protein Assay kit (Hercules, Calif., USA). Nitrocellulose membrane set (A&B), pre-spotted with kinase-specific capture antibodies, were first blocked with Array Buffer-1 at RT for 30 min on a rocking platform shaker. Approximately 600 μg of protein concentrate was diluted in the buffer provided and was added onto the membrane set, and the membranes were incubated overnight at 4° C. in an 8-well plate. Subsequently, membranes were washed with Wash Buffer and incubated with appropriate Detection Antibody cocktails for 2 h at RT. Streptavadin-HRP (1:2000) was added onto membranes and incubated for 30 min at RT. Membranes were washed, and Chemiluminescent Detection Reagents 1&2 were applied in equal volumes for detection. The signals were detected on C-DiGit® Blot Scanner (LI-COR, Odyssey Imaging Systems, Lincoln, Nebr., USA) using Image Studio 5.0 software.

MCF7 spheroids [3] = test: Reactive oxygen species (CellROX) assay, MCF7 spheroids; type: cell-based, human; settings: 48 h treatment, CellROX Green
Procedure: The CELLROX (Invitrogen) assay was used to measure the level of reactive oxygen species (ROS) in live cells. […] The technique was used to investigate the capability of tested compounds to induce intracellular ROS. After forming the spheroids for 48 hours and treating them for additional 48 hours with MAK compound, spheroids were incubated in culture medium with 500 nM CellROX for 60 minutes at 37° C. in presence of 5% CO2, and the samples were immediately analyzed on flow cytometry using 488-nm excitation for the CellROX® Green.

T1 sequence (P11712 whole entry): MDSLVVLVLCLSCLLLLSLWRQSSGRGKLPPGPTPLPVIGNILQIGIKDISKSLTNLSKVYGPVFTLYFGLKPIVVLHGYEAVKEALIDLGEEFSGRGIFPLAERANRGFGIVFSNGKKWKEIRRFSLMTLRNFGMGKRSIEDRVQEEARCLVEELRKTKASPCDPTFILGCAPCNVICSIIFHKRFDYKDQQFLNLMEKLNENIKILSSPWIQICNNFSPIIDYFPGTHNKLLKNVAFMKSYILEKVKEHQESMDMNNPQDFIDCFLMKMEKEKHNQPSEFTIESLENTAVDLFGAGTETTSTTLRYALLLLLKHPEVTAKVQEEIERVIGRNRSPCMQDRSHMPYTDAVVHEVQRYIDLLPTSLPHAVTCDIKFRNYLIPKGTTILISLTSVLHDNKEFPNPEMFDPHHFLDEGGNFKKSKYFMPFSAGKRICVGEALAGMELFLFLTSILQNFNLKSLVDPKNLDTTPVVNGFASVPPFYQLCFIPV

SMILES	inhibition of CYP2C9 (CYP2C9; concentrations up to 10 μM)	dead rate (dead cells), mean±SEM (T47D spheroids) [%]	normal cells inhibited at x-fold higher concentrations than MCF7 breast cancer cells ([1]; HSF vs MCF7) [fold]	depolarized cells (mitochondrial membrane), mean±SEM (MCF7 spheroids [2]) [%]	decrease of phospho-protein AMPK existence (AMPK (phospho-protein); compound at 6 μM) [%]	ROS level, treatment vs control (MCF7 spheroids [3]) [%]	inhibition of CYP2C9 (CYP2C9; concentration not given)	safety to normal cells (human skin fibroblasts) ([1]; HSF, SRB, 72 h)	decrease of phospho-protein AMPK existence (AMPK (phospho-protein); compound at 8 μM) [%]
COc1cccc(C(=O)Nc2ccc(CC(=O)NCc3ccccc3)cc2)c1 [MAK-1, N-(4-(2-(benzylamino)-2-oxoethyl)phenyl)-3-methoxybenzamide]	no inhibition	42.43±0.49	7	24.77±0.65	61.8	10			
O=C(Cc1ccc(NC(=O)c2cccc(Cl)c2)cn1)NCc1ccccc1 [MAK-6, N-(6-(2-(benzylamino)-2-oxoethyl)pyridin-3-yl)-3-chlorobenzamide]		37.97±0.27		28.73±0.82		6	did not display any inhibitory activity	highly safe	92.1
